Results on 3 compounds are retold here after patent US8765787B2, “Methods of treatment of xerophthalmia with self-preserving ocular formulations of norketotifen” (Bridge Pharma, Inc., priority 2008, dated 2014).

One may read the solubility as how much of the substance goes into solution per volume. For orientation: IC50 means the point on the concentration scale where inhibition reaches its midpoint. Usually inhibition stands for the relative decrease from the control value, in per cent. A higher inhibition goes with a response far below the control.

Data set [1] in a line: Solubility of norketotifen (saturated solutions, HPLC). It counts as physicochemical. The following applies: for solubility: thermodynamic from solid. As to the method: Saturated solutions of norketotifen were prepared at room temperature by stirring, overnight sonication and filtering of the saturated supernatant solutions. An HPLC method for the determination of concentrations of norketotifen was developed:
The HPLC system was a HP 1050 with a variable wavelength detector. […] The relative standard deviation was approximately 0.3 percent for the main peak area.

The test system of data set [2] is human granulocytes (buffy coat). Nature of the data set: Inhibition of histamine release from granulocytes (A23187-induced granulocyte activation). It counts as cell-based. The following applies: for IC50: 20 min, A23187 (5 μM), 20 min/37° C. As to the method:
In the present studies, effects on granulocyte activation was studied as inhibition of histamine release from human granulocytes (buffy coat) by norketotifen. The method is a modification of the method described by Nolte, H. et al., 1988. Granulocytes were obtained from human volunteers and mediator release was induced by incubation (20 min/37° C.) with the calcium ionophore A23187 (5 μM) in the presence or absence of a test article. Histamine was selected as an indicator for mediator release because of the ease with which histamine can be analyzed, using commercially available kits. The test articles were evaluated, in duplicate, at five concentrations and IC50-values were calculated.
The calcium ionophore A23187 was used to increase intracellular calcium concentration of the granulocytes.

Data set [3] can be described thus: Stability of norketotifen formulations. Format: physicochemical. As to conditions: pH 6.5; accelerated testing (55° C.). As to the method:
Stability of norketotifen formulations was studied after incubation at various temperatures, acidity and time intervals. The concentrations of norketotifen were measured after incubation periods of various lengths.

Data set [4] has as its system rabbit eyes. Kind of data set: Ocular irritation test. Format: in vivo, New Zealand White rabbits. The following applies: excipient-free solution 0.0345% in water or saline; rabbit eye, seven instillations of 0.1 ml. On the procedure:
New Zealand White rabbits, weighing 2 to 4 kilograms were used. Test formulation, in volumes of 0.1 ml were instilled into the conjunctival sac of six rabbit eyes of groups. Said volume of each formulation was repeatedly instilled every 30 minutes for 3 hours (a total of seven instillation into the eyes of rabbits. Ocular irritation was scored according to both Draize et al., 1944 and Kay and Calandra, 1962. Scorings were performed before each instillation and 30 minutes, 3 hours and 24 hours after the last instillation.
The formulations of norketotifen in Table 7 were prepared and tested and the results were compared with irritation by norketotifen in excipient-free solutions. […] In the present study, norketotifen HF was dissolved to an intended concentration of 0.276 percent in the various solutions, using stirring and over-night sonication at room temperature. After sonication, all solutions were filtered through a 0.45 μm non-pyrogenic MILLEX® HV filter unit before being used for ocular tests. Thus, all of the solutions used for the ocular irritation tests in Table 7 contained the highest possible concentrations of norketotifen HF.
Solutions of norketotifen were similarly prepared in excipient-free solutions containing only norketotifen HF 0.0345 percent by weight, dissolved in water or in saline, and filtered as described above. […]

For data set [5], the target named is T1, H-1 (Rattus norvegicus, UniProt P31390).
T1 construct: two intradermal injections of histamine; from tissue; host or cells: dorsal skin of live male rats (in vivo)
T1 sequence (P31390 whole entry): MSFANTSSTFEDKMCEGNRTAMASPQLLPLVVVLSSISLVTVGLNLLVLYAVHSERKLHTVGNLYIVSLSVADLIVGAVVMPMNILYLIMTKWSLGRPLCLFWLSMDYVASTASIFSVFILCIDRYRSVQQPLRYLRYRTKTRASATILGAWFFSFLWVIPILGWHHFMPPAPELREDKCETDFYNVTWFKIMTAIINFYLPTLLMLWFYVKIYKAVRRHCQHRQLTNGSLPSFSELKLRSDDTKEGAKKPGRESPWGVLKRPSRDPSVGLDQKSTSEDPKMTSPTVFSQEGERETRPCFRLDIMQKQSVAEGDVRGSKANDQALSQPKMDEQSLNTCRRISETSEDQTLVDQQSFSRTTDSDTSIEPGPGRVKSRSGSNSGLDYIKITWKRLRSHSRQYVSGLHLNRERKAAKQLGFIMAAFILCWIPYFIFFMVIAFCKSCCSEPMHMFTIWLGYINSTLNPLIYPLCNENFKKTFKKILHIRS
Kind of data set: Antihistaminic (H-1) activity in vivo after oral administration (histamine wheal). The arrangement: species or system rats. As to conditions: for Histamine (wheal area): 60 min before intradermal histamine; for Saline (wheal area): intradermal histamine vehicle. On the procedure:
Male rats (150-200 g) were starved overnight and twelve hours after dorsal depilation, the animals were dosed orally with the test compound(s). Four dorsal test areas were marked with permanent ink. Exactly 60 min after the dosing of the test compound, two intradermal injections of histamine (50 microliter; 1.0 mg/ml of histamine di-HCl) were performed, one on each side on the back of the animal. Two intradermal injections of the vehicle for the histamine solution were also performed. Evans blue dye (20 mg/kg) was injected iv 1 minute prior to the intra-dermal injections of histamine and the histamine vehicle. Twenty minutes were allowed for the wheal response to fully develop, whereupon the animals were euthanized and the dorsal skin containing the intradermal wheals was deflected. The blue spotted areas were measured in square millimeters and the duplicate vehicle wheal responses were averaged. […] The inhibition was calculated in percent difference from the corresponding vehicle baseline value.

Setting [6] is: water, read-out: water solubility.

Converted amounts (≈) assume the structure as drawn. Read-outs that look alike come from different tables or passages of the source.

On to `CN1CCC(=C2c3ccccc3CC(=O)c3sccc32)CC1` [ketotifen], for which the solubility in data set [1] (setting [6]) is roughly 12500 µg/mL (≈ 40.4 mM). This compound returned an IC50 in data set [2] of 91 µM.

For the compound `O=C1Cc2ccccc2C(=C2CCNCC2)c2ccsc21` [norketotifen FB], the “solubility of free base in non-aqueous solvents” value in data set [1] (propylene glycol, glycerin, ethanol and isopropyl alcohol) is reported as “can be dissolved”.

As to `O=C1Cc2ccccc2C(=C2CCNCC2)c2ccsc21` [norketotifen], the “soluble in polyethylene glycol (PEG 300)” value in data set [1] (PEG 300) was “up to 0.15 percent w/w”. The solubility in data set [1] (pH 8.6, aqueous buffer, read-out: solubility of norketotifen in water) was 2100 µg/mL (≈ 7.11 mM). Further, the solubility in data set [1] (pH 8.75, aqueous buffer, read-out: solubility of norketotifen in water) is roughly 1000 µg/mL (≈ 3.39 mM). For the same compound, the “soluble in propylene glycol” value in data set [1] (propylene glycol) is given as “up to 1.0 percent by weight”. Moreover, the solubility in data set [1] (propylene glycol, organic solvent or mixture, read-out: solubility of norketotifen in propylene glycol) is roughly 10000 µg/mL (≈ 33.9 mM). Moreover, in data set [1] (water), the “can be dissolved in water” value is “up to 0.216 percent by weight”. Further, in data set [1] (setting [6]), the solubility was roughly 2160 µg/mL (≈ 7.31 mM). The same compound came in with an IC50 in data set [2] of 9.2 µM. The “activity relative to ketotifen in inhibiting granulocyte activation (anti-inflammatory)” value in data set [2] (A23187-induced) was “about ten times more potent than ketotifen”. In addition, the “stability in solution formulations” value in data set [3] is given as “not stable”. In addition, in data set [4], the “ocular irritation (Draize; Kay and Calandra scoring)” value is reported as “caused irritation”. In data set [5] (rat, po), this compound came in with an inhibition at 1 mg/kg of 6%, an inhibition at 10 mg/kg of 83% and an inhibition at 50 mg/kg of 100%. In addition, in data set [5] (rats, oral), the “absorption after oral administration” value is on record as “well absorbed” and the “antihistaminic potency relative to diphenhydramine” value is on record as “more potent than the reference compound”. Also, in data set [5] (rats, oral, 1 mg/kg), the Histamine effect was 92 mm^2, the “Histamine (wheal area)” value worked out at 114 ± 8 mm^2 and the “Saline (wheal area)” value worked out at 22 ± 1 mm^2. In data set [5] (rats, oral, 10 mg/kg), the Histamine effect is 17 mm^2, the “Histamine (wheal area)” value is 39 ± 2 mm^2 and the “Saline (wheal area)” value worked out at 22 ± 1 mm^2. Further, in data set [5] (rats, oral, 50 mg/kg), the Histamine effect is recorded as 0 mm^2, the “Histamine (wheal area)” value turned out to be 10 ± 1 mm^2 and the “Saline (wheal area)” value worked out at 12 ± 1 mm^2. In addition, in data set [5] (tested in vivo (Example 12)), the “antihistaminic activity relative to ketotifen” value is “about half of that of ketotifen”.
